Source: US20240093168A1, “TRANS[…] IN CELLS OF ORGANISM INCLUDING HUMAN, T[…], AND TOOL FOR PURIFYING COMPLEX THEREOF” (KAWASAKI GAKUEN EDUCATIONAL FOUNDATION, priority 2021, published 2024)

Biological target: T1, HMG-CoA (Homo sapiens, UniProt P04035)
T1 sequence (P04035 426-888 limits assumed): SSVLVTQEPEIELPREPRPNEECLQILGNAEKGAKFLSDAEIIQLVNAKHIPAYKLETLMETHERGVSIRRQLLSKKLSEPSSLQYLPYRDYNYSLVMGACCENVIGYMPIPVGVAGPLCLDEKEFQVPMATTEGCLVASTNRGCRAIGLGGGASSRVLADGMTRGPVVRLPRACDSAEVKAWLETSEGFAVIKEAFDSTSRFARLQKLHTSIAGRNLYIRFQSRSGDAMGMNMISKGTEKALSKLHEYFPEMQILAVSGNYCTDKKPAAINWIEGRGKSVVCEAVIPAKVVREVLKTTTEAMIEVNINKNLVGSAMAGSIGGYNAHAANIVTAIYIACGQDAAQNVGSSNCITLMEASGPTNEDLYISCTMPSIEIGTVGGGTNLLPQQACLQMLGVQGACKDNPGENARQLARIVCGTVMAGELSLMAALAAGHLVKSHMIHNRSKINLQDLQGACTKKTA
Conditions: FIG. 17; S565 hydrogen bond

Row | Compound | binding sites when binding to HMG-CoA
1 | CC(C)c1c(C(=O)Nc2ccccc2)c(-c2ccccc2)c(-c2ccc(F)cc2)n1CC[C@@H](O)C[C@@H](O)CC(=O)O [atorvastatin] | many binding sites (S565)
2 | CC(C)c1nc(N(C)S(C)(=O)=O)nc(-c2ccc(F)cc2)c1/C=C/[C@@H](O)C[C@@H](O)CC(=O)O [rosuvastatin] | many binding sites (S565)
